Earlier results, collected in EP4286484B1, “AQUEOUS PRETREATMENT LIQUID, INK SET, PRINTED ITEM, AND SEPARATION METHOD” (priority 2022, dated 2023).

Details: anhydrous calcium salt of the named counter anion

## O=C([O-])c1ccccc1.O=C([O-])c1ccccc1.[Ca+2] [benzoate ion]
  solubility of the corresponding anhydrous calcium salt in 100 g of water at 20°C: 2 g
